{"source": "patent US11150251B2", "about": "“Bi-functional arginine-glycine-aspartic acid (RGD) peptides and methods to promote angiogenesis” (Clemson University Research Foundation, priority 2016, dated 2021)", "tested_on": "HUVECs", "assay": "HUVEC vascular network formation in 3D multi-signaling alginate hydrogels (integrin-binding peptide + QK peptide)", "format": "cell-based, human", "conditions": "5% (w/w) MMP-responsive QK peptides, preliminary data", "description": "To synergize with the α1 peptide, we used the α1 peptide and an MMP-responsive QK peptide (i.e., GPQG↓IAGKLTWQELYQLKYKGI, SEQ ID NO:41) to prepare an alginate-based injectable, multi-signaling hydrogels (FIG. 9). The MMP-responsive QK peptide was selected to introduce cell-dictated local release of angiogenic factors to recapitulate the pro-angiogenic microenvironment in vivo, where matrix bound VEGF is released by MMPs. Alginates was selected because it has been used as a biocompatible, injectable hydrogel-forming material to treat ischemic diseases.\nWe developed a modular approach to prepare the multi-signaling hydrogels (FIG. 10). Briefly, we have prepared alginates functionalized with α1 peptide (10% (w/w)) as well as alginates functionalized with MMP-responsive QK peptide (10% (w/w)) using click chemistry. We then mixed these two alginates at a ratio 1:1 (w/w) to prepare multi-signaling hydrogels to simultaneously engage αvβ3, VLA-6 integrins and VEGFR2. This modular approach allowed us to rapidly prepare alginates with different peptide functionalization to screen for an optimal formulation to support EC morphogenesis.", "data": [{"substance": "GPQG↓IAGKLTWQELYQLKYKGI (GPQGIAGKLTWQELYQLKYKGI) [MMP-responsive QK peptides, QK peptide with MMP degradable linkage]", "values": [{"measurement": "EC vascular network formation at given QK peptide content", "result": "sufficient to promote EC vascular network formation"}]}]}
